In the series the test system is perimenopausal and menopausal vasomotor symptoms, hot flashes and excessive sweating. Kind of series: Clinical use of topiramate for menopausal and perimenopausal vasomotor symptoms. In kind it is in vivo, human. An excerpt:
Based on data and observations made by the inventor, they have found topiramate to have the following, previously undiscovered, beneficial pharmacological effects for patients with excessive sweating and hot flashes. They are as follows: • 1. […] Helps to prevent patients from experiencing hot flashes, excessive sweating, and vasomotor symptoms associated with their perimenopause and menopause. • 3. Substantial improve or completely suppress nighttime vasomotor symptoms, excessive sweating, and hot flashes associated with perimenopause and menopause. • 4. Substantial improve or completely suppress daytime vasomotor symptoms, excessive sweating, and hot flashes associated with perimenopause and menopause. • 5. Effective in controlling these symptoms when taken only on an as needed basis. […] Optionally, the topiramate can be taken as a low dose on an as-needed basis. […] a person had been stable on their current treatment for Panic and Major Depressive Disorders with a satisfactory remission for several years and without any side effect complaints. However, now […], they started developing menopausal symptoms of hot flashes and excessive sweating. After counselling and informed consent about the off-label use, they took a trial of topiramate 25 mg by mouth twice daily. Upon follow up, they confirmed that the excessive sweating was improved with this low dose of topiramate and that they have found it to be effective when taken on an as needed basis, depending on their expectations of physical activity and weather/temperature conditions. […] Several other similar clinical examples were observed.

Results on one molecule are retold here after patent US20100317730A1, “Treatment for menopausal and perimenopausal vasomotor symptons” (priority 2009, published 2010).

Regarding `CC1(C)O[C@@H]2[C@@H](CO[C@@]3(COS(N)(=O)=O)OC(C)(C)O[C@@H]23)O1` [topiramate], for the setting “A person, menopausal hot flashes and excessive sweating, topiramate 25 mg by mouth twice daily, at follow up”, the excessive sweating result was “improved”. In addition, the “effectiveness when taken on an as needed basis” value (A person, low dose topiramate taken as needed, depending on physical activity and weather/temperature) is “effective”. The adverse effects entry (A person, topiramate 25 mg by mouth twice daily) is “no adverse effects”. The side effects result (inventor's patients, small doses) is given as “minimal to no side effects”. Further, where the note is “perimenopausal and menopausal patients, inventor's data and observations”, the “vasomotor symptoms, excessive sweating and hot flashes” value was “Substantial improvement”. For the same molecule, under “perimenopausal and menopausal women, doses as low as 12.5 mg per day”, the “treating hot flashes and hyperhidrosis” value is listed as “highly effective”.
